Laboratory results as given in patent publication US9403806B1, “Cognition enhancing compounds and compositions, methods of making, and methods of treating” (NeuroSolis, Inc., priority 2010, dated 2016).

Tests used:
rat M1 receptors = target: T1, rat M1 receptors (Rattus norvegicus, UniProt P08482); test: PI turnover (inositol phosphate production) in M1-CHO cells; assay type: cell-based; conditions: mean Smax relative to carbachol (100.0); CHO cells expressing rat M1
T1 construct: host or cells: CHO (M1-CHO)
T1 sequence (P08482 1-460): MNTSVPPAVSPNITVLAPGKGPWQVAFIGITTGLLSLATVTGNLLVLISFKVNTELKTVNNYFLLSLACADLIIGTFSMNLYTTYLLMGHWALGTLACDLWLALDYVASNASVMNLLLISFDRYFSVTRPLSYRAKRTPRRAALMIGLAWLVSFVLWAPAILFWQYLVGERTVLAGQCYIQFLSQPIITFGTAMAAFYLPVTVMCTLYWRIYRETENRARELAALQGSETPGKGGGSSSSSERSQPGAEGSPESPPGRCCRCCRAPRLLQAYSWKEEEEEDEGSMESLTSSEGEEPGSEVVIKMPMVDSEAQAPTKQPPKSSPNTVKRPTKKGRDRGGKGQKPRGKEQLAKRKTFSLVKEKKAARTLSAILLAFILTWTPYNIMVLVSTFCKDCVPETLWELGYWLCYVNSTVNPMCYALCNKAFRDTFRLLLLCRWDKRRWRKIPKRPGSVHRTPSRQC
Procedure: The medium was changed to 70 μL/well of inositol-free DMEM containing 2 mM glutamine, 10% FBS and 10 μCi/ml of [3H]-inositol (PE:cat # NET114A250UC), incubated overnight as above, then 100 μL of a solution of the test compound in HBSS containing 10 mM LiCl and 20 mM HEPES, pH 7.4 was added, incubation was continued for 60 min under the above conditions, and the test was stopped by removing the test compound and replacing with 100 μL of 50 mM formic acid in water at 4° C. […] The compounds in Table 1 are all dihydropyrimidine-oxadiazoles which vary only at the oxadiazole side chain.

[1] = Serum pharmacokinetics of immediate release capsules in healthy volunteers; assay type: in vivo, human; conditions: 5 mg dose cohort, 6 subjects
Procedure: The hydrochloride salt of MCD-386 (“MCD-386 HCl”) was formulated with the following excipients and loaded into #3 hard gelatin capsules (5 mg dose) or #2 hard gelatin capsules (0.2 mg dose).
A single 5 mg capsule or 5×0.2 mg capsules (1 mg total dose) were administered orally to healthy male volunteer human subjects with 125 ml of water. Six such subjects receiving the 5 mg dose, and a different 6 subjects received the 1 mg dose.
Venous blood samples were drawn at various intervals after dosing from each subject into standard tubes for bioanalytical and pharmacokinetic analysis. The blood was allowed to clot, and the serum separated, using common clinical laboratory techniques. Serum samples were stored at −20 deg C. until used for analysis.
MCD-386 HCl, which exists in serum principally as the protonated form of MCD-386, was assayed in clinical serum samples as follows. […] The MS/MS transitions monitored were 181.1 m/z to 111.0 m/z for MCD-386 HCl and 186.1 m/z to 111.1 m/z for the internal standard, D5-MCD-386 HCl. […] The lower limit of quantitation (LLOQ) was 0.100 ng MCD-386 HCl per mL of serum. MCD-386 HCl concentrations are expressed as free base. […]
The bioanalytical results were analyzed using Win Nonlin software and common pharmacokinetic methods known to those skilled in the art.

CD-I mice = test: Apomorphine induced climbing model of psychosis; assay type: in vivo; conditions: mice, sc, apomorphine 2 mg/kg (FIG. 1)
Procedure: As described in Costall et. al. European Journal of Pharmacology 1978, 50, 39. individual CD-I mice, 1-2 months old, were placed in a cylindrical wire mesh cage (13.2 cm high×13.2 cm diameter) constructed of steel wire 1 mm thick spaced at 1.2 cm^2. Cylinders were placed in a standard OptiMICE mouse cage (29×32×9×29 cm and 14 cm high) with adequate wood chip bedding provided. Observations of climbing (defined as 3 or more paws of the ground) were carried out every 5 minutes at a duration of 1 minute for […]. Animals were injected subcutaneously under isoflurane anesthesia with test compounds, reference compounds, which included clozapine, haloperidol, olanzapine and xanomeline, or PBS as a control. This was followed 5 minutes later by 2 mg/kg apomorphine hydrochloride. All drugs were dissolved in PBS or a mixture of (by volume) 96% PBS and 4% hydroxypropyl-beta-cyclodextrin, and dosed at a rate of 5 ml per kilogram of body weight. Following injections, animals were replaced in the mesh cages and observed for climbing (defined as 3 or more paws off the ground) every 5 minutes for 1 minute for 60 minutes after dosing.

PAMPA test, Example 34 = conditions: PAMPA

Question: Which “M1/CHO PI turnover Relative Mean Smax” value (rat M1 receptors) does the source give for `CCc1noc(C2CN=CNC2)n1` (stereo not shown) [MCD-386, 3-ethyl-5-(1,4,5,6-tetrahydropyrimidin-5-yl)-1,2,4-oxadiazole] here?
Answer: 70.0

Question: And the “main metabolite in serum samples” value [1]?
Answer: identified in the serum samples of five out of six subjects

Question: What about the “activity in the apomorphine induced climbing model” value (CD-I mice) of the same molecule?
Answer: inactive

Question: What about the Papp (PAMPA test, Example 34) of the same molecule?
Answer: 0.05 ×10⁻⁶ cm/s
